Calls of active or inactive are those of the source. No cut-off for these calls is given here.
Test system: PC-3
Experiment: Antiproliferative activity against human PC3 cells at 5 uM after 120 hrs by MTT assay relative to DMSO
Format: functional

Compound | fold change (FC)
NC1=NC(=O)/C(=C2/CCNC(=O)c3[nH]ccc32)N1 | 1.007
Cc1ccc(NC(=O)c2cccc(N(C)C)c2)cc1NC(=O)c1ccc(O)cc1 | 0.97
CC(C)C[C@H](NC(=O)c1ccc(NCc2c[nH]cn2)cc1-c1cccc2ccccc12)C(=O)O | 0.966
COc1cc2ncc(-c3ccccc3)nc2cc1OC | 0.94
CCCCCCCC/C=C\CCCCCCCC(=O)OC[C@@H](O)COP(=O)(O)O [LYSOPHOSPHATIDIC ACID] | 1.018
CC[C@H](CO)Nc1nc(NCc2ccccc2)c2ncn(C(C)C)c2n1 [SELICICLIB] | 0.797
CC1=C(/C=C/C(C)=C/C=C/C(C)=C/C(=O)O)C(C)(C)CCC1 [TRETINOIN] | 0.969
CC(/C=C/C(=O)NO)=C\[C@@H](C)C(=O)c1ccc(N(C)C)cc1 [TRICHOSTATIN] | 0.268
NS(=O)(=O)Cc1noc2ccccc12 [ZONISAMIDE] | 1.035

Test system: PC-3
Experiment: Antiproliferative activity against human PC3 cells at 500 nM after 120 hrs by MTT assay relative to DMSO
Format: functional

Compound | fold change (FC)
NS(=O)(=O)c1ccc(-n2nc(C(F)(F)F)cc2-c2ccccc2)cc1 | 1.023
CC(O)(CS(=O)(=O)c1ccc(F)cc1)C(=O)Nc1ccc(C#N)c(C(F)(F)F)c1 (stereo unspecified) [BICALUTAMIDE] | 1.005
CC[C@@]1(O)C(=O)OCc2c1cc1n(c2=O)Cc2cc3ccccc3nc2-1 [CAMPTOTHECIN] | 0.258
C[C@@H]1C[C@H]2[C@@H]3CCC4=CC(=O)C=C[C@]4(C)[C@@]3(F)[C@@H](O)C[C@]2(C)[C@@]1(O)C(=O)CO [DEXAMETHASONE] | 1.127
C[C@]12CC[C@@H]3c4ccc(O)cc4CC[C@H]3[C@@H]1CC[C@@H]2O [ESTRADIOL] | 0.997
C[C@]12CC[C@@H]3c4ccc(O)cc4C[C@@H](CCCCCCCCC[S+]([O-])CCCC(F)(F)C(F)(F)F)[C@H]3[C@@H]1CC[C@@H]2O (stereo partly specified) [FULVESTRANT] | 1.068
O=C(c1ccc(OCCN2CCCCC2)cc1)c1c(-c2ccc(O)cc2)sc2cc(O)ccc12 [RALOXIFENE] | 1.06
CC/C(=C(\c1ccccc1)c1ccc(OCCN(C)C)cc1)c1ccccc1 [TAMOXIFEN] | 1.041
CN(C)CCOc1ccc(/C(=C(/CCCl)c2ccccc2)c2ccccc2)cc1 [TOREMIFENE] | 1.001
COC[C@H]1OC(=O)c2coc3c2[C@@]1(C)C1=C(C3=O)[C@@H]2CCC(=O)[C@@]2(C)C[C@H]1OC(C)=O [WORTMANNIN] | 0.856

Test system: PC-3
Experiment: Antiproliferative activity against human PC3 cells at 2 uM after 120 hrs by MTT assay relative to DMSO
Format: functional

Compound | fold change (FC)
O=S(=O)(NCCNC/C=C/c1ccc(Br)cc1)c1cccc2cnccc12 | 1.028
CC(C)(C)NCC(O)c1ccc(O)c(CO)c1 (stereo unspecified) [ALBUTEROL] | 0.926
CC(C)(C)NCC(O)c1cc(Cl)c(N)c(Cl)c1 (stereo unspecified) [CLENBUTEROL] | 0.963
CN1CCN(C2=Nc3cc(Cl)ccc3Nc3ccccc32)CC1 [CLOZAPINE] | 0.977
CC(C)NCC(O)c1ccc(O)c(O)c1 (stereo unspecified) [ISOPROTERENOL] | 0.955
CC1(C)CCC2=C(O1)c1ccccc1C(=O)C2=O [LAPACHONE] | 0.243
Cc1cc2c(s1)Nc1ccccc1N=C2N1CCN(C)CC1 [OLANZAPINE] | 1.059
CC(C)NCC(O)COc1cccc2ccccc12 (stereo unspecified) [PROPRANOLOL] | 0.986
OCCOCCN1CCN(C2=Nc3ccccc3Sc3ccccc32)CC1 [QUETIAPINE] | 1.013
Cc1nc2n(c(=O)c1CCN1CCC(c3noc4cc(F)ccc34)CC1)CCCC2 [RISPERIDONE] | 1.071
O=C1Cc2cc(CCN3CCN(c4nsc5ccccc45)CC3)c(Cl)cc2N1 [ZIPRASIDONE] | 1.017

Test system: PC-3
Experiment: Antiproliferative activity against human PC3 cells at 25 uM after 120 hrs by MTT assay relative to DMSO
Format: functional

Compound | fold change (FC)
O=c1cc(N2CCOCC2)oc2c(-c3ccccc3)cccc12 [LY-294002] | 0.33
COc1ccc(C2CNC(=O)C2)cc1OC1CCCC1 (stereo unspecified) [ROLIPRAM] | 1.065
C[S+]([O-])c1ccc(-c2nc(-c3ccc(F)cc3)c(-c3ccncc3)[nH]2)cc1 (stereo unspecified) [SB-203580] | 0.721
C[C@@H](N)[C@H]1CC[C@H](C(=O)Nc2ccncc2)CC1 [Y-27632] | 0.958

Test system: PC-3
Experiment: Antiproliferative activity against human PC3 cells at 30 uM after 120 hrs by MTT assay relative to DMSO
Format: functional

Compound | fold change (FC)
CCC1(c2ccc(N)cc2)CCC(=O)NC1=O (stereo unspecified) [AMINOGLUTETHIMIDE] | 0.979
CC(C)c1c(C(=O)Nc2ccccc2)c(-c2ccccc2)c(-c2ccc(F)cc2)n1CC[C@@H](O)C[C@@H](O)CC(=O)O [ATORVASTATIN] | 0.264
COCc1c(C(C)C)nc(C(C)C)c(/C=C/[C@@H](O)C[C@@H](O)CC(=O)O)c1-c1ccc(F)cc1 [CERIVASTATIN] | 0.254
CC(C)(Oc1ccc(C2CC2(Cl)Cl)cc1)C(=O)O (stereo unspecified) [CIPROFIBRATE] | 1.047
CC(C)n1c(/C=C/C(O)CC(O)CC(=O)O)c(-c2ccc(F)cc2)c2ccccc21 (stereo unspecified) [FLUVASTATIN] | 0.255
Cc1ccc(C)c(OCCCC(C)(C)C(=O)O)c1 [GEMFIBROZIL] | 1.046
CC(=O)N1CCN(c2ccc(OCC3COC(Cn4ccnc4)(c4ccc(Cl)cc4Cl)O3)cc2)CC1 (stereo unspecified) [KETOCONAZOLE] | 1.066
CC[C@H](C)C(=O)O[C@H]1C[C@@H](C)C=C2C=C[C@H](C)[C@H](CC[C@@H]3C[C@@H](O)CC(=O)O3)[C@H]21 [LOVASTATIN] | 0.25
CC[C@H](C)C(=O)O[C@H]1CCC=C2C=C[C@H](C)[C@H](CC[C@@H]3C[C@@H](O)CC(=O)O3)[C@H]21 [MEVASTATIN] | 0.243
CC[C@H](C)C(=O)O[C@H]1C[C@H](O)C=C2C=C[C@H](C)[C@H](CC[C@@H](O)C[C@@H](O)CC(=O)O)[C@H]21 [PRAVASTATIN] | 1.098
CC(C)c1nc(N(C)S(C)(=O)=O)nc(-c2ccc(F)cc2)c1/C=C/[C@@H](O)C[C@@H](O)CC(=O)O [ROSUVASTATIN] | 0.491
CCC(C)(C)C(=O)O[C@H]1C[C@@H](C)C=C2C=C[C@H](C)[C@H](CC[C@@H]3C[C@@H](O)CC(=O)O3)[C@H]21 [SIMVASTATIN] | 0.239

Test system: PC-3
Experiment: Antiproliferative activity against human PC3 cells at 50 uM after 120 hrs by MTT assay relative to DMSO
Format: functional

Compound | fold change (FC)
Br.Cc1ccc(C(=O)Cn2c3c(sc2=N)CCCC3)cc1 | 0.424
O=c1cc(-c2ccc(O)cc2)oc2cc(O)cc(O)c12 [APIGENIN] | 0.552
Cn1c(=O)c2c(ncn2C)n(C)c1=O [CAFFEINE] | 0.952

Test system: PC-3
Experiment: Antiproliferative activity against human PC3 cells at 10 uM after 120 hrs by MTT assay relative to DMSO
Format: functional

Compound | fold change (FC)
CC[C@H](C)[C@@H](CO[C@@H](Cc1ccccc1)C(=O)N[C@@H](CCS(C)(=O)=O)C(=O)OC(C)C)NC[C@@H](N)CS | 0.719
Cc1ccc(S(=O)(=O)/C=C/C#N)cc1 | 0.231
CCCCCCCCCCCCC/C=C/[C@H](O)[C@@H](CO)NC(C)=O [ACETYL CERAMIDE] | 0.787
Cc1ccc(-c2cc(C(F)(F)F)nn2-c2ccc(S(N)(=O)=O)cc2)cc1 [CELECOXIB] | 0.902
Clc1ccccc1C(c1ccccc1)(c1ccccc1)n1ccnc1 [CLOTRIMAZOLE] | 0.708
Cc1ccc(NC(=O)c2ccc(CN3CCN(C)CC3)cc2)cc1Nc1nccc(-c2cccnc2)n1 [IMATINIB] | 0.5
c1ccc([C@H]2CN3CCSC3=N2)cc1 [LEVAMISOLE] | 1.028
Fc1ccc([C@@H]2CCNC[C@H]2COc2ccc3c(c2)OCO3)cc1 [PAROXETINE] | 0.328
O=C1C=C2C(=CCOC2O)O1 (stereo unspecified) [PATULIN] | 0.23
CS(=O)(=O)c1ccc(C2=C(c3ccccc3)C(=O)OC2)cc1 [ROFECOXIB] | 1.08
CC(C)(C)c1ccc(C(O)CCCN2CCC(C(O)(c3ccccc3)c3ccccc3)CC2)cc1 (stereo unspecified) [TERFENADINE] | 0.212
Cc1onc(-c2ccccc2)c1-c1ccc(S(N)(=O)=O)cc1 [VALDECOXIB] | 1.048

Test system: PC-3
Experiment: Antiproliferative activity against human PC3 cells at 1 uM after 120 hrs by MTT assay relative to DMSO
Format: functional

Compound | fold change (FC)
CCCc1nc(C)c2c(=O)nc(-c3cc(S(=O)(=O)N4CCN(CC)CC4)ccc3OCC)[nH]n12 | 1.058
CCCc1nn(C)c2c(=O)[nH]c(-c3cc(S(=O)(=O)N4CCN(C)CC4)ccc3OCC)nc12 | 1.037
Ic1cccc(CSc2nnc(-c3ccncc3)o2)c1 | 1.095
CNc1cc2c(Nc3cccc(Br)c3)ncnc2cn1 | 1.022
CN1CC(=O)N2[C@H](c3ccc4c(c3)OCO4)c3[nH]c4ccccc4c3C[C@@H]2C1=O | 1.052

Target: Transcription factor Jun (Homo sapiens) (UniProt P05412)
Experiment: Activation of c-Jun expressed in HEK293 cells assessed as induction of protein interaction with Pin1 by EYFP based reporter gene assay
Format: cell-based

Transcription factor Jun (Homo sapiens), sequence (P05412 whole entry): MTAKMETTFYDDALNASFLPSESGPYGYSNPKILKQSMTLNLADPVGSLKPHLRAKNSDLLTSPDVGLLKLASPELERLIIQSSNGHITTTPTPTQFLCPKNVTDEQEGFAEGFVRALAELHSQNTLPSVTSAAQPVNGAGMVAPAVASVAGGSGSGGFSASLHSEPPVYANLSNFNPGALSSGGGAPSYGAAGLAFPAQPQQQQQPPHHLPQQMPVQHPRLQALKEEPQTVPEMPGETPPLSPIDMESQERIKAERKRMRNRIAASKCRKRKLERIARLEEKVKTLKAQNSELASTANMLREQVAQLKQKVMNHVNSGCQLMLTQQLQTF

Compound | Activity
CC(C)(Oc1ccc(C2CC2(Cl)Cl)cc1)C(=O)O (stereo unspecified) [CIPROFIBRATE] | Active
Cc1ccc(C)c(OCCCC(C)(C)C(=O)O)c1 [GEMFIBROZIL] | Active

Target: Cyclin-dependent kinase 1 (Homo sapiens) (UniProt P06493)
Experiment: Effect on Cdc2 expressed in HEK293 cells assessed as effect on Cdc2:Cdc25C interaction complexes in presence of camptothecin by EYFP and/or YFP Venus fragment based reporter gene assay
Format: cell-based

Cyclin-dependent kinase 1 (Homo sapiens), sequence (P06493 whole entry, looked up, the tested form may be a part): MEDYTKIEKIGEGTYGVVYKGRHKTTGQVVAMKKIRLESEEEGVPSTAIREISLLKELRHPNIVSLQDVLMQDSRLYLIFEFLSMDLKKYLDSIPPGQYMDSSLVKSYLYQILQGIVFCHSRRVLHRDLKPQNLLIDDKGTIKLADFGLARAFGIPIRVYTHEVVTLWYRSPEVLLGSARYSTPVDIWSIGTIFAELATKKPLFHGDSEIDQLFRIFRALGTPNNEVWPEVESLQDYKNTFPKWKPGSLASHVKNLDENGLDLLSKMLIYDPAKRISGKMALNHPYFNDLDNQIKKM

Compound | Activity
Cc1ccc(S(=O)(=O)/C=C/C#N)cc1 | Active
C(=C\c1ccccc1)/CN1CCN(C(c2ccccc2)c2ccccc2)CC1 | Active
Clc1ccccc1C(c1ccccc1)(c1ccccc1)n1ccnc1 [CLOTRIMAZOLE] | Active
O=C1C=C2C(=CCOC2O)O1 (stereo unspecified) [PATULIN] | Active

Target: Cyclin-dependent kinase 1 (Homo sapiens) (UniProt P06493)
Experiment: Effect on Cdc2 expressed in HEK293 cells assessed as effect on Cdc2:Cdc25A interaction complexes in presence of camptothecin by EYFP and/or YFP Venus fragment based reporter gene assay
Format: cell-based

Compound | Activity
C(=C\c1ccccc1)/CN1CCN(C(c2ccccc2)c2ccccc2)CC1 | Active
Clc1ccccc1C(c1ccccc1)(c1ccccc1)n1ccnc1 [CLOTRIMAZOLE] | Active
O=C1C=C2C(=CCOC2O)O1 (stereo unspecified) [PATULIN] | Active

Target: Transcription factor Jun (Homo sapiens) (UniProt P05412)
Experiment: Inhibition of c-Jun expressed in HEK293 cells assessed as induction of protein interaction in presence of camptothecin with Pin1 by EYFP based reporter gene assay
Format: cell-based

Compound | Activity
C(=C\c1ccccc1)/CN1CCN(C(c2ccccc2)c2ccccc2)CC1 | Active
Clc1ccccc1C(c1ccccc1)(c1ccccc1)n1ccnc1 [CLOTRIMAZOLE] | Active
O=C1C=C2C(=CCOC2O)O1 (stereo unspecified) [PATULIN] | Active

Target: Cofilin-1 (Homo sapiens) (UniProt P23528)
Experiment: Effect on cofilin1 expressed in HEK293 cells assessed as effect on cofilin1; Limk2 interaction complexes in presence of camptothecin by EYFP and/or YFP Venus fragment based reporter gene assay
Format: cell-based

Cofilin-1 (Homo sapiens), sequence (P23528 whole entry, the tested form may be a part): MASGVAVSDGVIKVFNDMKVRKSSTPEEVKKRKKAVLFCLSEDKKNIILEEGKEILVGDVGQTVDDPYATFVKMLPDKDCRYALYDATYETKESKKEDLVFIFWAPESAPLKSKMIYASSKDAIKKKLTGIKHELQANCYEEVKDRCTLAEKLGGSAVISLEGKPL

Compound | Activity
C(=C\c1ccccc1)/CN1CCN(C(c2ccccc2)c2ccccc2)CC1 | Active
Clc1ccccc1C(c1ccccc1)(c1ccccc1)n1ccnc1 [CLOTRIMAZOLE] | Active
O=C1C=C2C(=CCOC2O)O1 (stereo unspecified) [PATULIN] | Active

From ChEMBL document CHEMBL1221184, “Identifying off-target effects and hidden phenotypes of drugs in human cells” (Nat Chem Biol, 2006)
